Biological target: human plasma kallikrein (Homo sapiens (Human), UniProt P03952)
Test: In vitro enzyme inhibition of human plasma kallikrein (Pro-Phe-Arg-AMC cleavage)
Assay type: biochemical
Settings: human Plasma Kallikrein (Abcam), Pro-Phe-Arg-AMC substrate, 37° C., pH 7.5; read-out: hPK IC50
Description: The ability of the compounds disclosed herein to inhibit human plasma kallikrein activity was quantified according to the procedures below.
A 10 mM solution of the test compound was made in DMSO. […] A control tube containing only DMSO is included. 16 μL of each compound test solution was combined with 384 μL of assay buffer (50 mM Tris-HCl pH 7.5, 150 mM NaCl, 0.01% Triton X-100) to yield a “4× test compound buffer stock”.
These solutions are hereby referred to as 4× hPK and 2×PFR-AMC, respectively.
50 μL was removed from this mixture and placed into duplicate wells on a Microfluor 1Black U-bottom microtiter plate (Thermo Scientific). This plate was incubated for 5 minutes at 37° C. To each well, 50 μL of pre-warmed 2×PFR-AMC was added to start the enzymatic reaction. Cleavage of PFR-AMC was monitored in a Biotek Synergy H4 reader set at 37° C. Readings are taken every 43 seconds for 1 hour. […] The IC50 is calculated using the Gen5 (Biotek Instruments).
The ability of the compounds in Table 3 to inhibit human plasma kallikrein activity was determined.

human plasma kallikrein, sequence (P03952 391-638 limits assumed): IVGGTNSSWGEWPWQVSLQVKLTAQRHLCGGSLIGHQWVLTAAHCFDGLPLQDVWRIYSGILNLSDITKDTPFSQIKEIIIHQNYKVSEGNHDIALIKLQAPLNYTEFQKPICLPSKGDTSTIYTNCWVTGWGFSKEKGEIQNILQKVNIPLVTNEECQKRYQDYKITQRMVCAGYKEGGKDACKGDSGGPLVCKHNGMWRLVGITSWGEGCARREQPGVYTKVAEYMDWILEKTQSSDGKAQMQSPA
human plasma kallikrein, sequence (P03952 20-390 partner limits assumed): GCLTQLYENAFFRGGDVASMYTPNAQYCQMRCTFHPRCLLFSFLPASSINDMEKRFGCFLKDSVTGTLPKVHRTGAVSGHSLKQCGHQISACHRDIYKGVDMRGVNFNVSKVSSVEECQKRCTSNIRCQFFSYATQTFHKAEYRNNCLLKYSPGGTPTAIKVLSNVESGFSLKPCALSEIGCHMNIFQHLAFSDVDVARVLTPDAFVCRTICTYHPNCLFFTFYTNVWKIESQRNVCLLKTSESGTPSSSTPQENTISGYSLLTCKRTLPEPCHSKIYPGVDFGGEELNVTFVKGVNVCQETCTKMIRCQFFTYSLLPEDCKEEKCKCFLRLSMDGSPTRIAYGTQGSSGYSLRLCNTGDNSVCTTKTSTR

Substance: N-((6-amino-2,4-dimethylpyridin-3-yl)methyl)-2-((5-methyl-3a,7a-dihydro-1H-indazol-1-yl)methyl)isonicotinamide [Example 108]
- IC50: < 100 nM

— patent US11021463B2, “Therapeutic inhibitory compounds” (Attune Pharmaceuticals, Inc., priority 2013, dated 2021)
